Patent US9795687B2, “Modularly assembled small molecules for the treatment of myotonic dystrophy type 1” (The Scripps Research Institute, priority 2013, dated 2017)

Key:
r(CAG)12 = assay: SPR binding kinetics to r(CAG)12
Description: The binding of 2H-K4NMe to various RNAs including r(CUG)12, r(CAG)12, r(AU)12 and r(GC)δ was studied by surface plasmon resonance (SPR) spectrometry. […] In summary, 2H-K4NMe is selective for r(CUG)12 by ˜30-100-fold over the other RNAs studied (Table 2). In general, it has a faster association rate (kon) and a slower dissociation rate (koff) when binding to r(CUG)12 compared to the other RNAs.
On rates, off rates and Kobs values were measured using a ForteBio OctetRed spectrophotometer and Streptavidin SA dip-and-read biosensors (ForteBio). Sensors were pre-equilibrated in 1X Kinetics Buffer (ForteBio) prior to beginning measurements. 5′-Biotinylated r(CUG)12 was folded by heating in 1X Kinetics Buffer at 60° C. for 5 min followed by slow cooling to room temperature on the bench top. Measurements were completed by incubating sensors sequentially in 200 μL of: 1X Kinetics Buffer, 540 nM 5′-biotinylated RNA, 1X Kinetics Buffer, compound of interest or MBNL1 (varying concentrations; seven 1:2 dilutions in 1X Kinetics Buffer), and finally 1X Kinetics Buffer. Data were fit using ForteBio's Data Analysis 7.0 software. MBNL1 and II (monomer) data were fit using a 1:1 model. This model fits one analyte in solution binding to one binding site on the surface. 2H-K4NMe and 2H-4 data were fit using a 2:1 heterogeneous ligand model. This model fits the binding of one analyte in solution to two different binding sites on the surface. Kinetic parameters are calculated for both interactions.

[1] = system: Clcn1 and Serca1 (Atp2a1) alternative splicing in HSA^LR mice; assay: Alternative pre-mRNA splicing in DM1 mouse model (HSA^LR), RT-PCR of vastus muscle; type: in vivo
Description: 2H-K4NMe was selected for animal studies based on overall performance in cell-based assays, increased proteolytic stability as compared to 2H-KNH and decreased structural complexity compared to 2H-K4NPr. A mouse model of DM1 has been reported in which 250 rCUG repeats are expressed using an actin promoter (human skeletal actin long repeat, HSA^LR).^24 The presence of these repeats results in dysregulation of alternative splicing in the muscle-specific chloride ion channel (Clcn1) and the sarcoplasmic/endoplasmic reticulum calcium ATPase 1 (Serca1/Atp2a1) pre-mRNAs. Clcn1 exon 7a is excluded ˜100% in mRNA from normal adult mice; DM1 mice have an exclusion rate of ˜50%. After DM1 mice were treated for 7 days with 100 mg/kg/d of 2H-K4NMe, the exclusion rate of exon 7A was restored to 71% (p-value=0.007) (FIGS. 7 and 11). Mis-splicing of Serca1 exon 21 was also partially rescued. The exon 22 inclusion rate is ˜100% in normal adult mice and ˜11.8% in DM1 mice.
All experimental procedures, mouse handling, and husbandry were completed in accordance with the Association for Assessment and Accreditation of Laboratory Animal Care. A mouse model for DM1, HSA^LR in line 20b, was used.^24 HSA^LR mice express human skeletal actin RNA with 250 CUG repeats in the 3′ UTR. Age- and gender-matched HSA^LR mice were injected intraperitoncally with 100 mg/kg 2H-K4NMe in water for treatment or 0.9% NaCl for control once per day for 7 days. Mice were sacrificed one day after the last injection, and the vastus muscle was obtained. RNA was extracted from the vastus tissue, and cDNA was synthesized as previously described.^65
PCR amplification was carried out for 26-30 cycles with the following primer pairs: Clcn1 forward 5′-[…] (SEQ ID NO:5) and reverse 5′-(6FAM)[…] (SEQ ID NO:6); Secral forward 5′-(6FAM)[…] (SEQ ID NO:7) and reverse 5′- […] (SEQ ID NO:8). The PCR products were separated by agarose gel electrophoresis. The gel was scanned with a laser fluorimager (Typhoon, GE Healthcare), and the products were quantified using ImageQuant.

[2] = r(CAG)12, two component binding isotherm

SMILES: C[C@@H](C(=O)N(C)[C@@H](C)C(=O)N(C)[C@@H](C)C(=O)N(C)[C@@H](C)C(=O)N[C@@H](CCCCNC(=O)CCCOc1cccc(-c2nc3cc(-c4nc5cc(N6CCN(C)CC6)ccc5[nH]4)ccc3[nH]2)c1)C(N)=O)N(C)C(=O)CCCOc1cccc(-c2nc3ccc(-c4nc5cc(N6CCN(C)CC6)ccc5[nH]4)cc3[nH]2)c1 [Compound 2H-K4NMe]
- Selectivity for r(CUG)12 (r(CAG)12; over r(CAG)12): 63
- kon (1) (r(CAG)12; r(CAG)12): 83800 M⁻¹ s⁻¹
- kon (2) (r(CAG)12; r(CAG)12): 1630 M⁻¹ s⁻¹
- Kd (r(CAG)12; r(CAG)12, read-out: Kobs (1)): 829 nM
- koff (1) (r(CAG)12; [2]): 0.0695 s⁻¹
- koff (2) (r(CAG)12; [2]): 0.0847 s⁻¹
- effect on alternative splicing of Itgb1 and CapZB mRNAs (not regulated by MBNL1) ([1]; 100 mg/kg/d for 7 days): did not affect
- Serca1 exon 22 inclusion rate ([1]; 100 mg/kg/d for 7 days, DM1 mice ˜11.8%, normal ˜100%): 21.5%
- Clcn1 exon 7a exclusion rate ([1]; 100 mg/kg/d intraperitoneally for 7 days, DM1 mice ˜50%, normal ˜100%): 71%
